Experimental findings from patent US20250108051A1, “THERAPEUTIC AGENT FOR CANCER” (TOHOKU UNIVERSITY, priority 2022, published 2025) are described below.

Format in all cases: cell-based
The test system of experiment [1] is WiDR (BRAF V600E-mutated colorectal cancer cell line). As to the kind of experiment: MTT assay, encorafenib + binimetinib with retinoid. The conditions noted are these: Test Example 6; concentration-dependent. As for the experimental part: (§1) RKO cells were seeded on a 96-well plate with the number of cells of 1.5×10^3 cells/well, CO115 cells were seeded on a 96-well plate with the number of cells of 2.5×10^3 cells/well, and HT29 cells and WiDR cells were respectively seeded on 96-well plates with the number of cells of 6×10^3 cells/well. After incubation for about 24 hours until the cell density reached 40% to 60%, the drug was administered. After incubation at 37° C. for 72 hours, the MTT assay was performed using Cell Counting Kit-8 (Dojindo Laboratories, Kumamoto, Japan). To each well was added 10 μl of Cell Counting Kit-8 solution, the plates were placed in a culture vessel at 5% CO2 and 37° C. for 120 minutes to perform a color reaction, and then the absorbance at 450 nm was measured and evaluated with a microplate reader SpectraMax M2e (Molecular Devices, Sunnyvale, CA, USA). Cells administered with 0.1% DMSO were used as a control. The above was performed three or more times as independent experiments.
(§2) In various kinds of colorectal cancer cell lines, the inhibition effect of a BRAF inhibitor (encorafenib) and an MEK inhibitor (binimetinib) for the viability of cells and the enhancement by ATRA were examined. […] The horizontal axis indicates component concentrations of encorafenib and binimetinib in a range of 0 μM to 10 μM, and the vertical axis indicates the cell viability when 0 μM, 1.0 μM, or 10 μM (each bar graph) of ATRA was administered. As shown in the drawing, encorafenib and binimetinib were used in an equal molar concentration.
(§3) As the compounds for acting on a retinoid receptor, retinol, tamibarotene, and bexarotene among the retinoids were used. As the cell lines, the colorectal cancer cell lines including RKO, HT29, CO115, WiDR, COLO205, and LIM2405 described above were used. As the BRAF inhibitor and the MEK inhibitor to be used in combination, a component (EB) obtained by mixing encorafenib and binimetinib in equal amounts was used as in Test Example 2.
(Tetrazolium dyes change colour on reduction, which living cells bring about.)

Experiment [2] has as its system CO115 (BRAF V600E-mutated colorectal cancer cell line). Kind of experiment: MTT assay, encorafenib + binimetinib with retinoid. As for the experimental part: as §1, §2
(§4) As the compounds for acting and on a retinoid receptor, retinol, tamibarotene, bexarotene among the retinoids were used. As the cell lines, the above-described cell lines including RKO, HT29, and CO115 were used. As the BRAF inhibitor and the MEK inhibitor to be used in combination, a component (EB) obtained by mixing encorafenib and binimetinib in equal amounts was used as in Test Example 2.
as §3

Experiment [3] concerns RKO (BRAF V600E-mutated colorectal cancer cell line). Kind of experiment: MTT assay, encorafenib + binimetinib with retinoid. How it is done: as §1, §2, §4, §3
For experiment [4], the system named is HT29 (BRAF V600E-mutated colorectal cancer cell line). As to the kind of experiment: MTT assay, encorafenib + binimetinib with retinoid. As for the experimental part:
as §1, §2, §4, §3

In experiment [5] the test system is LIM2405 cell line. Kind of experiment: MTT assay, encorafenib + binimetinib with retinoid. The conditions noted are these: Test Example 6; concentration-dependent. How it is done: as §1, §3
Experiment [6] concerns COLO205 cell line. As to the kind of experiment: MTT assay, encorafenib + binimetinib with retinoid. The conditions noted are these: Test Example 6; concentration-dependent. How it is done:
as §1, §3

In experiment [7] the test system is RKO cells, encorafenib/cetuximab resistant strain. As to the kind of experiment: Viability of encorafenib/cetuximab resistant strain with encorafenib and ATRA. Particulars: for IC50: Homo sapiens, RKO, Resistant Strain, read-out: IC50 (50% inhibition concentration). As for the experimental part: Encorafenib/cetuximab resistant strains were constructed, and the inhibitor enhancing effect of ATRA was examined for the resistant strains.
For the construction of the resistant strains, the above-described RKO cells were seeded in 15 mm dishes and a group in which the BRAF inhibitor Encorafenib and an anti-EGFR antibody Cetuximab were administered and a group in which the BRAF inhibitor Encorafenib, the MEK inhibitor Binimetinib, and the anti-EGFR antibody Cetuximab were administered were prepared.
The vertical axis represents the viability (ratio), and the horizontal axis represents the administration amount of encorafenib.

The subject of experiment [8] is RKO cells, sensitive strain. As to the kind of experiment: Viability of sensitive strain with encorafenib and ATRA. Particulars: for IC50: Homo sapiens, RKO, Sensitive Strain, read-out: IC50 (50% inhibition concentration).
The mark [9] stands for this setting: Test Example 6, concentration-dependent, smaller concentrations than Test Example 3.
[10] abbreviates: Test Example 3, EB 0.1 μM, retinol 30 μM, tamibarotene 10 μM or bexarotene 10 μM.
[11] abbreviates: Test Example 3, EB 0.01 μM, retinol, tamibarotene or bexarotene 1 μM.
Where [12] appears, read: Test Example 3, EB 0.1 μM, retinol 30 μM or tamibarotene 30 μM.

Where two headings read alike, the source gives them in different places.

On to `C=C(c1ccc(C(=O)O)cc1)c1cc2c(cc1C)C(C)(C)CCC2(C)C` [bexarotene], for which the “cell viability on further adding a retinoid to EB” value (“cell viability” below) is recorded as “greatly decreased” in experiment [1]; “greatly decreased” in experiment [2] (setting [9]); “greatly reduced” in experiment [3] (setting [10]); “greatly decreased” in experiment [3] (setting [9]); “greatly reduced” in experiment [4] (setting [11]); “greatly decreased” in experiment [4] (setting [9]). Besides, the “cell viability” value in experiment [5] and in experiment [6] was “greatly decreased” each time.
For `COC(=O)N[C@@H](C)CNc1nccc(-c2cn(C(C)C)nc2-c2cc(Cl)cc(NS(C)(=O)=O)c2F)n1` [encorafenib], the IC50 in experiment [7] (ATRA 0 μM) is greater than 10000 nM; in experiment [7] (ATRA 1 μM) it was 1580 nM; in experiment [8] (ATRA 0 μM), 1230 nM; in experiment [8] (ATRA 1 μM), 4.6 nM. Besides, the “viability (ratio)” value in experiment [7] (resistant strain (R), ATRA 1 μM) is “around 0.3”; in experiment [8] (sensitive strain (S), ATRA 1 μM, encorafenib 0 to 10 μM) it was “around 0.1”; in experiment [8] (sensitive strain, ATRA not administered) it was “around 0.3”.
With `CC1=C(/C=C/C(C)=C/C=C/C(C)=C/CO)C(C)(C)CCC1` [retinol], the “cell viability” value in experiment [1] was “greatly decreased”; in experiment [2] (setting [12]), “greatly reduced”; in experiment [2] (setting [9]) it was “greatly decreased”; in experiment [3] (setting [10]), “greatly reduced”; in experiment [3] (setting [9]) it was “greatly decreased”; in experiment [4] (setting [11]), “greatly reduced”. In addition, the “cell viability” value in experiment [4] (setting [9]), in experiment [5] and in experiment [6] was “greatly decreased” in each case.
Regarding `CC1(C)CCC(C)(C)c2cc(NC(=O)c3ccc(C(=O)O)cc3)ccc21` [tamibarotene], the “cell viability” value in experiment [1] is “greatly decreased”; in experiment [2] (setting [12]), “greatly reduced”; in experiment [2] (setting [9]), “greatly decreased”; in experiment [3] (setting [10]), “greatly reduced”; in experiment [3] (setting [9]) it was “greatly decreased”; in experiment [4] (setting [11]), “greatly reduced”. Moreover, the “cell viability” value in experiment [4] (setting [9]), in experiment [5] and in experiment [6] was “greatly decreased” in each case.
